Assay results reported in patent US20210251955A1, “PREVENTION OF AGE RELATED CLONAL HEMATOPOIESIS AND DISEASES ASSOCIATED THEREWITH” (Yeda Research and Development Co. Ltd., priority 2018, published 2021).
“Also recorded” adds a separate entry of the source. Values belong to the compound of their own block, whether it stands above or below them.

What was measured:
[1] = tested on: panel of 18 genetically diverse AML cell lines; assay: Cell viability upon sulfonamide exposure across a panel of 18 AML cell lines; format: cell-based
Description: (§1) The effects of indisulam and the sulfonamide analogue, E7820, were first examined across a panel of 18 genetically diverse AML cell lines.

[2] = tested on: isogenic K562, TF-1 and NALM-6 cells expressing mutations in SF3B1, SRSF2, U2AF1; assay: Growth inhibition of isogenic leukemia lines with or without spliceosomal hotspot mutations; format: cell-based; conditions: isogenic K562, TF-1, NALM-6
Experimental: (§2) (FIG. 4A) Sulfonamides bridge RBM39 to the CUL4-DDB1-DDA1-DCAF15 E3 ubiquitin ligase complex, leading to polyubiquitination and proteasomal degradation of RBM39. IC50 curves of the sulfonamide E7820 in isogenic (FIG. 4B) K562 and (FIG. 4C) NALM6 WT or mutant for SF3B1. (FIG. 4D) Western blots of RBM39 levels+[…] of the sulfonamides Indusulam or E7820 from the cells in (FIG. 4C).
(§3) FIGS. 5A-D illustrate the preferential response of spliceosomal mutant hematopoietic cells to indisulam. (FIG. 5A) IC50 plots of isogenic K562 (left) and NALM-6 (right) cells to indisulam. These are cell with introduction of a spliceosomal gene mutation into the endogenous locus. (FIG. 5B) Western blots of RBM39 in the K562 cells from (FIG. 5A) at increasing doses of indisulam. (FIG. 5C) Log10 IC50 waterfall plots of response of AML cell lines with naturally occurring mutations in splicing factors to indisulam. Red bars represent cells with naturally occurring mutations in splicing factors. (FIG. 5D) Bar plot of number of differential splicing events across parental, SF3B1^K700E/WT, and SRSF2^P95H/WT K562 cells. The numbers above each bar indicate number of differentially spliced events.
as §1

RBM39 = molecular target: T1, RBM39 (Homo sapiens, UniProt Q14498+Q66K64); assay: RBM39 protein levels (Western blot) in isogenic leukemia cell lines; format: cell-based
T1 construct: endogenous in cells; host or cells: isogenic K562 / NALM-6 (and TF-1) leukemia cells, wild type or with knock-in of spliceosomal gene mutations
Experimental: as §2, §3
The effects of indisulam and the sulfonamide analogue, E7820, were first examined across a panel of 18 genetically diverse AML cell lines. […]

parental K562 cells = assay: IC50 in parental K562 cells; format: cell-based; conditions: Homo sapiens
[3] = tested on: K562 cells (parental, SF3B1^K700E, SRSF2^P95H); assay: RNA-sequencing of parental K562 and isogenic SF3B1^K700E and SRSF2^P95H lines, differential splicing; format: cell-based; conditions: for Splicing changes relative to DMSO treatment: at the IC50 of each drug in parental K562 cells, regardless of mutation status
Description: as §3
Identification and Quantification of Differential Splicing
Isoform ratios for all alternative splicing events were quantified using MISO v2.0. Constitutively spliced exons and introns were quantified using junction-spanning reads. The conditional knockin and knockout mice were compared in a pair-wise manner, and for each pair the analysis was restricted to splicing events with 20 or more reads supporting either or both isoforms, and where the event was alternatively spliced in the sample pair. […] The human AML samples were analyzed by calculating the median isoform ratios across all 28 SRSF2 wildtype samples, and comparing that in a pair-wise manner to each SRSF2 mutant sample, using the same methodology as for the knockin and knockout mice. The Mx1-Cre^+Srsf2^+/+ or Mx1-Cre^+Srsf2^P95H/+E7107-treated mice were compared in a pair-wise manner against the median isoform ratios of their vehicle-treated counterparts, using the same methodology. For the MLL-AF9 AML transformed mice there were sufficient replicates to do a group-based comparison within the Srsf2P95H and wildtype genotypes individually (N=5 for each genotype-treatment combination). E7107- and vehicle-treated mice were compared in a two-sided Wilcoxon rank-sum test, using the total number of isoform reads within each treatment group.
In parallel, RNA-seq was carried out of the same cell lines treated with E7107, a small molecule that inhibits splicing through impeding binding of SF3B1 to the branch point [Finci et al., Genes & Dev. (2018) 32: 309-320].
Thus, both genetic as well pharmacologic degradation of RBM39 disrupts splicing as well as other pathways required for leukemogenicity.

[4] = tested on: Srsf2^P95H/WT MLL-AF9 AML cells; assay: In vitro viability (MTS) of isogenic murine MLL-AF9 AML cells, Srsf2 WT vs Srsf2 mutant; format: cell-based
Description: FIGS. 1A-E illustrate the effects of PRMT inhibition on splicing. (FIG. 1A) Diagram of the role of PRMT5 and the type I PRMTs in splicing regulation. PRMTs methylate arginines on splicing proteins to promote spliceosome assembly and are required for proper splicing function. IC50 curves of spliceosomal mutant acute myeloid leukemia cells or their WT counterparts exposed to (FIG. 1B) the PRMT5 inhibitor GSK591 or (FIG. 1C) the PRMT1 inhibitor MS-023. Western blots of (FIG. 1D) symmetric dimethyl arginine (SDMA) or (FIG. 1E) asymmetric dimethyl arginine (ADMA) from the cells in (FIG. 1B) and […] respectively.
FIG. 2 illustrates drug sensitivity of AML cells with SMMs or partial loss of PRMT5 to inhibitors of splicing, PRMTs, or LSD1. MLL-AF9 Srsf2^WT/WT; MLL-AF9 Srsf2^P95H/WT or MLL-AF9 Prmt5^+/− cells were treated for 7 days with the indicated compounds in 384 wells (5 increasing concentrations per compound). Viability at day 7 was scored by MTS assay and reported as the ratio over control treated cells (with equivalent dilution of DMSO). The experiment was conducted in biological triplicate, and each individual run was repeated in technical triplicate. […]
Of note, the SF3B1 inhibitor, E7107, was used in the same assays as a positive control. […] Viability at day 7 was scored by MTS assay and reported as the ratio over control treated cells (with equivalent dilution of DMSO). […]

[5] = tested on: SF3B1 as well as SRSF2-mutant AML and chronic myelomonocytic leukemia (CMML); conditions: Seiler et al., Nature Medicine (2018); cited from earlier work
spliceosomal-mutant AML = conditions: Lee et al. Nat Med (2016); cited from earlier work
[6] = tested on: spliceosomal-mutant leukemias; conditions: PDX, Lee et al. Nat Med (2016); cited from earlier work

Degradation of RBM39 (RBM39): dose-dependent degradation of RBM39
Compound: Cc1ccc(NS(=O)(=O)c2cccc(C#N)c2)c2[nH]cc(C#N)c12 [E7820]
Sensitivity (cell viability) of most cell lines [1]: sub-micromolar sensitivity
Preferential sensitivity of spliceosomal mutant cells to growth inhibition over wild-type [2]: preferentially sensitive
IC50 (parental K562 cells): 1000 nM
Differential splicing events in SF3B1^K700E cells versus SF3B1 wild-type ([3]; 1 μM E7820): greater number of differential splicing events
Splicing of SUPT6H, hnRNPH and SRSF10 mRNAs ([3]; E7820 exposure): intron retention that was most pronounced in spliceosomal mutant cells
Splicing changes relative to DMSO treatment [3]: increased cassette exon skipping and intron retention
Changes in splicing, E7820 versus E7107 ([3]; equipotent non-toxic doses, within each cell type and splicing category): greater changes in splicing

Compound: O=C(NC[C@H](O)CN1CCc2ccccc2C1)c1ccnc(NC2CCC2)c1 [GSK591]
Sensitivity of Srsf2-mutant cells versus wildtype [4]: more sensitive

Compound: H3B-8800
Preferential effects in spliceosomal-mutant disease [5]: preferential effects
Splicing fidelity [5]: dose-dependent reductions in splicing fidelity

Compound: CC[C@H](O)[C@@H](C)[C@H]1O[C@@H]1C[C@@](C)(O)/C=C/C=C(\C)[C@H]1OC(=O)C[C@H](O)CC[C@@](C)(O)[C@@H](OC(=O)N2CCN(C3CCCCCC3)CC2)/C=C/[C@@H]1C [E7107]
Splicing changes relative to DMSO treatment [3]: increased cassette exon skipping and intron retention
Sensitivity of spliceosomal-mutant AML over isogenic WT in vivo (spliceosomal-mutant AML): differentially sensitive
Eradication of leukemia [6]: complete eradication could not be achieved
Human leukemic cell burden, mutant versus WT [6]: greater reduction in human leukemic cell burden

Compound: NS(=O)(=O)c1ccc(S(=O)(=O)Nc2cccc3c(Cl)c[nH]c23)cc1 [indisulam]
Sensitivity (cell viability) of most cell lines [1]: sub-micromolar sensitivity
Preferential sensitivity of spliceosomal mutant cells to growth inhibition over wild-type [2]: preferential effects; also recorded: preferentially sensitive

Compound: CC(C)Oc1ccc(-c2c[nH]cc2CN(C)CCN)cc1 [MS-023]
Sensitivity of Srsf2-mutant cells versus wildtype [4]: more sensitive
